This note sets out measurements from patent US12295955B2, “TTP phosphorylation for the identification of personalized medicines” (KING FAISAL SPECIALIST HOSPITAL & RESEARCH CENTRE, priority 2019, dated 2025).

For assay [1], the system named is phosphorylated TTP. The assay is described as follows: Phosphorylated TTP level in ERBB2 overexpressing SKBR3 cells treated with ERBB2 inhibitor. The assay is classed as cell-based. As to conditions: SKBR3 breast cancer cell line, FIG. 6B.
Assay [2] concerns phosphorylated TTP/ZFP36. The assay is described as follows: Western blotting of phosphorylated TTP/ZFP36 in excised xenograft tumor tissues. More on the design: species or system nude mice. As to conditions: 10 mg/kg in vivo treatment, Western blot, FIG. 4B. The method, then: (§1) FIGS. 4A-4B show kinase inhibition in mice and reduction in TTP phosphorylation. • 4A) PLK1 inhibition and tumor size in mice; MDA-MB-231 xenografts were injected into the mammary fat pad of female nude mice; when tumors become palpable, mice were treated with either volasertib (10 mg/kg) or vehicle twice weekly. The tumor size was calculated as described in Methods. Data are Mean±SEM from a nine-mouse experiment as indicated. Two-way ANOVA was performed for overall effect with Sidak's multiple comparison test (*p<0.05, **** p<0.0001). 4B) The effect of volasertib on TTP/ZFP36 phosphorylation; WB of tumor tissues from each mouse as probed with anti-TTP/ZFP36 or GAPDH as the loading control.
The cells were lysed in a mixture of 0.5% NP40 buffer, protease inhibitor and phosphatase inhibitor. […] Protein bands were detected using ECL Western blotting detection reagents (Amersham Biosciences, Amersham, UK) in Molecular Imager ChemiDoc machine (BioRad, Hercules, CA, USA).
Nude mice were purchased from Jackson Laboratories (Bar Harbor, Maine, USA). […] Tumor growth was measured by caliper, and the volume was calculated by the formula (π/6×L×M2), where L and M refer to the large and small diameters of each tumor, respectively. Mice weight and tumor size were recorded weekly. […]

For assay [3], the system named is phosphorylated TTP/ZFP36. Briefly: Western blotting of TTP/ZFP36 phosphorylation in cells treated with kinase inhibitor volasertib. The assay is classed as cell-based. The method, then: The cells were lysed in a mixture of 0.5% NP40 buffer, protease inhibitor and phosphatase inhibitor. The calf intestinal alkaline phosphatase (CIP, Promega, Madison, WI, USA) was used to verify the phosphorylation status of TTP/ZFP36, 20 units were added to the cell lysate (per 250 ul). The cell lysates were loaded and subjected to electrophoresis on 4-12% NuPAGE Bis-Tris gel (Invitrogen, Foster City, CA, USA). Then, the proteins were transferred from the gel to nitrocellulose membranes (Hybond ECL; Amersham Biosciences, Piscataway, NJ) in the presence of NuGAGE 20× transfer buffer (Invitrogen, Foster City, CA, USA). After blocking, membranes were incubated with primary antibodies diluted in 5% bovine serum albumin (BSA) (Sigma-Aldrich, St Louis, MO) at 4° C. overnight. For TTP/ZFP36, a custom-made affinity purified TTP polyclonal antibody and against C-terminal end of TTP and was used previously. This antibody is specific to TTP/ZFP36, but not the ortholog: ZFP36L1 when using 0.5% NP40 buffer instead of Laemmli buffer. Other antibodies are: anti-PLK1 (dilution 1:1000, Cell signaling, Massachusetts, USA), anti-GAPDH (dilution 1:500, Abcam, MA, USA), anti-HA, dilution 1:5000, Roche, Upper Bavaria, Germany). Thereafter, the membranes were incubated with corresponding secondary antibodies (diluted in 5% BSA, 1:2000 dilution) (Santa Cruz Biotech, Santa Cruz, CA) for 1-3 hrs. Protein bands were detected using ECL Western blotting detection reagents (Amersham Biosciences, Amersham, UK) in Molecular Imager ChemiDoc machine (BioRad, Hercules, CA, USA).
An exemplary kinase inhibitor, namely volasertib, was tested for the effects on the level of phosphorylation of TTP. […] The maximum dosage tested was 300 nM, and the lowest tested dose was 10 nM and was still effective (FIG. 2A). […] There was no change in the mobility of ZFP36 as observed with CIP treatment, indicating a partial, rather than complete de-phosphorylation event (as with CIP).

The test system of assay [4] is uPA. The assay is described as follows: Western blotting of uPA protein (TTP target) after volasertib. It counts as cell-based. As to conditions: volasertib 330 nM time course, FIG. 2C. The method, then: The cells were lysed in a mixture of 0.5% NP40 buffer, protease inhibitor and phosphatase inhibitor. The calf intestinal alkaline phosphatase (CIP, Promega, Madison, WI, USA) was used to verify the phosphorylation status of TTP/ZFP36, 20 units were added to the cell lysate (per 250 ul). The cell lysates were loaded and subjected to electrophoresis on 4-12% NuPAGE Bis-Tris gel (Invitrogen, Foster City, CA, USA). Then, the proteins were transferred from the gel to nitrocellulose membranes (Hybond ECL; Amersham Biosciences, Piscataway, NJ) in the presence of NuGAGE 20× transfer buffer (Invitrogen, Foster City, CA, USA). After blocking, membranes were incubated with primary antibodies diluted in 5% bovine serum albumin (BSA) (Sigma-Aldrich, St Louis, MO) at 4° C. overnight. For TTP/ZFP36, a custom-made affinity purified TTP polyclonal antibody and against C-terminal end of TTP and was used previously. This antibody is specific to TTP/ZFP36, but not the ortholog: ZFP36L1 when using 0.5% NP40 buffer instead of Laemmli buffer. Other antibodies are: anti-PLK1 (dilution 1:1000, Cell signaling, Massachusetts, USA), anti-GAPDH (dilution 1:500, Abcam, MA, USA), anti-HA, dilution 1:5000, Roche, Upper Bavaria, Germany). […] Protein bands were detected using ECL Western blotting detection reagents (Amersham Biosciences, Amersham, UK) in Molecular Imager ChemiDoc machine (BioRad, Hercules, CA, USA). […]

The test system of assay [5] is MDA-MB-231 xenografts. The assay is described as follows: MDA-MB-231 xenograft tumor growth in nude mice. It counts as in vivo. The method, then:
as §1
Nude mice were purchased from Jackson Laboratories (Bar Harbor, Maine, USA). The mice were housed at the animal facility at King Faisal Specialist Hospital and Research Center (KFSHRC) and maintained in accordance with protocols approved by the institution Animal Care and Use Committee. […] Tumor growth was measured by caliper, and the volume was calculated by the formula (π/6×L×M2), where L and M refer to the large and small diameters of each tumor, respectively. Mice weight and tumor size were recorded weekly. […]

Setting [6] is: dose response, 10 nM to 300 nM, Western blot, FIG. 2A.
[7] abbreviates: time course, volasertib 330 nM, FIG. 2B.

As for `CS(=O)(=O)CCNCc1ccc(-c2ccc3ncnc(Nc4ccc(OCc5cccc(F)c5)c(Cl)c4)c3c2)o1` [lapatinib], the “levels of phosphorylated TTP” value in assay [1] is on record as “reduce the levels of phosphorylated TTP”.

Consider `CC[C@@H]1C(=O)N(C)c2cnc(Nc3ccc(C(=O)N[C@H]4CC[C@H](N5CCN(CC6CC6)CC5)CC4)cc3OC)nc2N1C(C)C` [volasertib], for which the “phosphorylated TTP/ZFP36 levels in excised tumor tissues versus control” value in assay [2] was “markedly reduced”. Further, the “lowest tested dose still effective on TTP / phosphorylated TTP abundance” value in assay [3] (FIG. 2A) amounted to 10 nM. Further, the “change in the mobility of ZFP36 (partial rather than complete de-phosphorylation)” value in assay [3] (compared with CIP treatment) is “no change”. Also, in assay [3] (setting [6]), the “abundance of phosphorylated TTP” value is given as “reduced in a dose-dependent manner” and the “abundance of total TTP” value is listed as “reduced in a dose-dependent manner”. Also, in assay [3] (setting [7]), the “time after treatment at which effect on phosphorylated TTP is first observed” value came to 2 h and the “time after treatment of maximal effect on phosphorylated TTP” value was 8 h. The “abundance of the uPA protein” value in assay [4] is reported as “reduced”. Further, the “tumor growth versus control group” value in assay [5] (10 mg/kg intraperitoneal twice a week, female nude mice, FIG. 4A upper panel) was “slower growth rate and began to regress by the end of the experiment”. For the same compound, in assay [5] (10 mg/kg twice a week, after 4 weeks of treatment, FIG. 4A lower panel), the “difference in tumor volume versus vehicle” value was “statistically significant difference”.
